Structures are written as SMILES.

The source of these data is the METLIN SMRT retention time set (Domingo-Almenara et al. 2019).

The series in a line: gradient 5% acetonitrile 3 min, to 50% in 2 min, to 85% in 15 min, held 3 min, 100 µL/min. Particulars: column: Zorbax Extend-C18 2.1 x 50 mm; eluents: water / acetonitrile, 0.1% formic acid. In short, it runs like this:
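The mobile phases were water and acetonitrile, each with 0.1% formic acid, pumped at 100 μL/min through a Zorbax Extend-C18 column (2.1 × 50 mm, 1.8 μm). Pure standards were injected as mixtures of ~100 molecules and detected by a quadrupole time-of-flight mass spectrometer in positive and negative ionization mode. Retention time came from computationally picked adduct peaks, each inspected by hand.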
`COC(=O)C1=CN(c2cccc(C#N)c2)c2ccccc2S1(=O)=O`: the RP-LC retention time was 754 s. `O=[N+]([O-])c1ccccc1S(=O)(=O)c1ccccc1[N+](=O)[O-]`: the RP-LC retention time amounted to 840 s. `Cc1ccc(S(=O)(=O)N2CC(F)(F)C[C@H]2CN2CCc3ccccc3C2)cc1` returned an RP-LC retention time of 766 s.

`Cc1nc(-c2ccc3c(c2)CCN3C(=O)COc2ccc(Cl)cc2)no1` showed an RP-LC retention time of 976 s.

Regarding `CCn1nc(C)c(CCN(C)C(=O)Nc2ccccc2C(=O)OC)c1C`, the RP-LC retention time worked out at 744 s. Consider `Cc1ccc(C(CC(=O)N2CCN(c3ccccn3)CC2)n2cccc2)cc1` (stereo not given), for which the RP-LC retention time turned out to be 995 s.

Take `O=C(Cn1cnc2nc(N3CCC(C(=O)NC4CC4)CC3)sc2c1=O)NCc1cccs1`: the RP-LC retention time worked out at 618 s. Regarding `Cc1ccc(CC(=O)N(CCS(=O)(=O)N2CCNCC2)CC2CCCO2)cc1` (stereo not given), the RP-LC retention time was determined as 645 s. With `COc1cc(C(=O)Nc2cccc(N3CCCS3(=O)=O)c2)c([N+](=O)[O-])cc1OC`, the RP-LC retention time was determined as 681 s.

Consider `COc1ccccc1-c1nnc(-c2ccc(Cl)c(S(=O)(=O)N3CCCCCC3)c2)o1`, for which the RP-LC retention time was determined as 1150 s.

`CC1=C(c2ccc(C)cc2)S(=O)(=O)N=C1N1CCCN(C(=O)c2ccc(C#N)cc2)CC1` had an RP-LC retention time of 835 s.

`COC(=O)Cn1c(C2CC(=O)N(c3ccc(OC)cc3)C2)nc2ccccc21` (stereo not given): the RP-LC retention time is 709 s.

In the case of `CC1CCc2onc(C(=O)N(CCC#N)c3ccccc3)c2C1` (stereo not given), the RP-LC retention time is 945 s. With `CCOc1ccc(-n2nnc(C(=O)O)c2COC)cc1`, the RP-LC retention time turned out to be 734 s. In turn, `CC(=O)Nc1ccc(SCCCC(=O)Nc2ccc3c(c2)OCCO3)nn1` had an RP-LC retention time of 634 s. As for `CCc1ccc(CNC(=O)C2CCCN(c3ncnc4nn(-c5ccc(C)cc5)cc34)C2)cc1` (stereo not given), the RP-LC retention time was 787 s. `O=C(CCc1ccccc1)Nc1ccc2c(c1)CCCN2C(=O)c1ccco1`: the RP-LC retention time came out at 861 s. With `Clc1nnc(NC2CCCCC2)c(Cl)c1Cl` the figure was 1200 s; with `CC1=NS(=O)(=O)N(C)C=C1C(=O)OCc1ccc(Cl)cc1`, 978 s. Take `COc1ccc(CNC(=O)CN2C(=O)CC(c3cccs3)=Nc3ccccc32)cc1`: the RP-LC retention time was 863 s. On to `Cc1cc(C(=O)N2C[C@@H](C)[C@H](c3nc(-c4ccncc4)no3)C2)n[nH]1`, for which the RP-LC retention time came to 619 s.

Turning to `CCn1c(CCNC(=O)c2cc(F)ccc2F)nc2cccnc21`, the RP-LC retention time was 641 s. With `CCCNc1cc(N2CCC(CCC(=O)Nc3ccc(OC)c(OC)c3)CC2)ncn1` the figure was 648 s; with `O=C(NCc1ccc(N2CCOCC2)cc1)c1cn2c(n1)COCC2`, 597 s; with `COc1ccc(N2CC(c3nc(-c4cccc(Cl)c4)no3)CC2=O)cc1` (stereo not given), 973 s. As for `Cc1ccc(CNC(=O)Nc2cccc(-c3ccc(N4CCC(C)CC4)nn3)c2)cc1`, the RP-LC retention time came out at 784 s. As for `Cc1nc(-c2csc(S(=O)(=O)N3CCC(C(=O)N4CCN(C)CC4)CC3)c2)no1`, the RP-LC retention time was 616 s. As for `Cc1ccc2[nH]cc(CCN3CC(C(=O)N4CCOCC4)CC3=O)c2c1` (stereo not given), the RP-LC retention time stood at 679 s. In turn, `CC(C)C(=O)Nc1cccn2nc(C3CCC3)nc12` returned an RP-LC retention time of 802 s. With `O=C(c1ccc2c(c1)CCCC2)N1CCN(c2ccccc2)CC1` the figure was 1050 s.

`Cc1csc(-c2cc(S(=O)(=O)Nc3ccc(F)c(Cl)c3)c(C)s2)n1` returned an RP-LC retention time of 1070 s.

As for `COc1ccc(NC(=O)C2CC(=O)N(c3n[nH]c4ccccc34)C2)cn1` (stereo not given), the RP-LC retention time stood at 646 s. On to `COc1ccc(N2CCN(c3cc(SCC(=O)Nc4cccc(OC)c4)ncn3)CC2)cc1`, for which the RP-LC retention time is 894 s. In the case of `COc1cc(NC(=O)Cn2nc3n(c2=O)CCCCC3)cc(OC)c1OC`, the RP-LC retention time was 659 s. The molecule `CCN1CCCn2cc(S(=O)(=O)NCc3ccc(F)cc3Cl)cc2C1=O` came in with an RP-LC retention time of 771 s. Regarding `CCN1CCn2cc(S(=O)(=O)Nc3ccc(F)c(F)c3)cc2C1=O`, the RP-LC retention time amounted to 727 s. With `N#Cc1ccc(Cl)cc1NC(=O)C1CCN(c2ccc(-c3cccs3)nn2)CC1` the figure was 702 s; with `COc1ccc(NC(=O)CN2CCc3c(c(=O)c4cc(C)ccc4n3C)C2)cc1`, 599 s. Molecule `CCCn1ccc2sc(C)c(C(=O)NCCN3CCCCC3CC)c2c1=O` (stereo not given) came in with an RP-LC retention time of 673 s. In turn, `Cc1cccc(C2=NC3(CCN(C(=O)c4ccc5c(c4)OCO5)CC3)NC2=O)c1` displayed an RP-LC retention time of 792 s. With `O=C(NCCC1CCN(C(=O)Nc2cc(F)cc(F)c2)CC1)C1CC1`, the RP-LC retention time is 735 s. The value for `CCOC(=O)c1c(C)[nH]c(C(=O)N2CCCC(C(=O)NCc3cccc(Cl)c3)C2)c1C` (stereo not given) was 848 s; that for `O=C(c1ccc(F)c(Cl)c1)N1CCN=C1N1CCCCC1` was 673 s; that for `Cn1c(N2CCCC(C(=O)NCC3CCN(Cc4ccc(F)cc4)CC3)C2)cc(=O)n(C)c1=O` (stereo not given) was 590 s. As to `CCOC(=O)c1nc(N(Cc2ccccc2)C(C)C)c2ccccc2n1`, the RP-LC retention time was determined as 1000 s. Turning to `COc1ccc(CNC(=O)c2ccc3c(c2)NC(=O)C2CCCCN32)cc1OC` (stereo not given), the RP-LC retention time was 719 s. With `O=C(Nc1ccc(F)cc1F)Nc1nccn(-c2cccc(F)c2)c1=O` the figure was 971 s; with `COc1ccc(NC(=O)C2CCc3nc(N4CCC(C)CC4)ncc3C2)c(C)c1` (stereo not given), 747 s; with `CCOC(=O)c1[nH]c(C)c(CCC(=O)N2CCC(C(=O)NCCOC)CC2)c1C`, 628 s. The value for `COc1cc(=O)n2c(c1C(=O)NC1CCc3ccccc31)CCCC2` (stereo not given) was 686 s. Molecule `CC(C)CN(Cc1cccnc1)C1CN(C(=O)NCc2ccc(F)cc2)C1` returned an RP-LC retention time of 640 s. `COc1ccccc1-c1nc(Cn2cccc(S(=O)(=O)N3CCCC3)c2=O)no1`: the RP-LC retention time is 736 s. Take `O=C(c1c[nH]c2ccccc12)N1CCC2(CC1)NC(=O)N(Cc1ccccc1)C2=O`: the RP-LC retention time turned out to be 750 s.

For `Cc1cccc(N2CCN(c3cc(-c4ccccc4)nc4c(-c5ccccc5)cnn34)CC2)n1`, the RP-LC retention time came out at 1010 s. Consider `CCCN1C(=O)COc2ccc(-c3noc(-c4cccc(F)c4)n3)cc21`, for which the RP-LC retention time came to 1200 s. The value for `COc1cccc(S(=O)(=O)N2CCc3nc[nH]c3C2)c1` was 602 s; that for `CCN1CCN(c2cc(C)c3cc(NC(=S)NCc4ccc(F)cc4Cl)ccc3n2)CC1` was 657 s. The value for `CCc1ccc(NC(=O)c2cc(=O)n(C)c3c2c(=O)n(C)c(=O)n3C)cc1` was 870 s; that for `Cc1ccc(NC(=O)C2CCN(S(=O)(=O)c3cn(C(C)C)cn3)CC2)nc1` was 626 s. For the molecule `COc1ccc(-c2ncccc2CNS(=O)(=O)c2c(C)cccc2Cl)cc1`, the RP-LC retention time was 719 s. For the molecule `COc1ccc(-c2nc3ccccn3c2Nc2ccc(Cl)cc2)cc1`, the RP-LC retention time came to 671 s. As for `Cc1oc(C2CCN(C(=O)c3cc(F)ccc3F)CC2)nc1C(=O)N1CCCC1`, the RP-LC retention time turned out to be 769 s. Consider `Cc1ccc(N2CN(CCC(C)C)S(=O)(=O)c3cccnc32)cc1`, for which the RP-LC retention time was 1150 s. The molecule `O=C(c1ccc(Br)o1)N1CCN(c2ccc(=O)n(-c3ccc(Cl)cc3)n2)CC1` yielded an RP-LC retention time of 878 s. With `O=C(Nc1ccnc2ccc(Cl)cc12)c1ccc(S(=O)(=O)NC2CC2)cc1` the figure was 656 s; with `COC(=O)COC(=O)c1cn(-c2cccc(Cl)c2)c(=O)c2ccccc12`, 1010 s. With `CN1CCCCCCN(C(=O)c2cccn2C)[C@H]2CCC[C@H]2C1=O`, the RP-LC retention time is 816 s.

The molecule `COc1ccc(Cn2nc3c(S(=O)(=O)N4CCCCCC4)cccn3c2=O)cc1` returned an RP-LC retention time of 909 s.

Take `CC(C)n1cnc(S(=O)(=O)N2CCC(C(=O)Nc3ccc4c(c3)OCO4)CC2)c1`: the RP-LC retention time turned out to be 722 s. Molecule `COc1cccc(C(=O)N2CCC3(C2)C(=O)N(C)c2ccccc23)c1OC` (stereo not given) had an RP-LC retention time of 749 s.

`Cc1oc2ncnc(N3CCCC(C(=O)NCc4cccnc4)C3)c2c1C` (stereo not given) yielded an RP-LC retention time of 593 s. `Cc1cc2nc(C(=O)Nc3ccc(F)c(C)c3)cc(C)n2n1` registered an RP-LC retention time of 1010 s. The value for `O=C(O)c1cc(NS(=O)(=O)c2ccccc2C(F)(F)F)cc(C(=O)O)c1` was 660 s; that for `Cc1cc(C)cc(-c2nc(-c3ccc4c(c3)nnn4CCC(=O)N3CCCC3)no2)c1` was 1090 s; that for `COC[C@@H]1CN(S(=O)(=O)c2cccc(C)c2)C[C@H]1c1ccccn1` was 651 s. The value for `Cc1ccc(S(=O)(=O)N(C)C)cc1-c1nnc(-c2ccc(Cl)cc2)o1` was 1080 s; that for `Cc1nc(-c2ccccc2F)sc1C(=O)NC1CC1` was 827 s; that for `Cc1cc(-c2nnc(-c3ccccc3)o2)c(C)n1CC(=O)Nc1cc(F)cc(F)c1` was 747 s. As for `CCN1C(=O)c2cc(C(=O)NCCc3ccccc3)nn2CC1(C)C(=O)NC1CCCC1` (stereo not given), the RP-LC retention time came to 791 s. For the molecule `O=C(c1cccs1)N1CCn2c(nnc2-c2ccccc2)C1`, the RP-LC retention time came out at 656 s.
